# Assay results published in US20100278787A1, “CARDIOMYOCYTE-LIKE CELL CLUSTERS DERIVED FROM HBS CELLS” (Cellartis AB, priority 2007, published 2010).
# Columns and labels:
# [1] = system: contracting clusters of cells; assay: Functional receptors: contractile activity of contracting areas after pharmacological agents (method of Norström et al. 2006); format: cell-based, human; settings: agents administered to contracting areas; method and Table 1 of Norström et al. 2006
# [2] = system: hERG channel in CMLC
# [3] = system: CMLC clusters; assay: Transmembrane action potential (TAP) microelectrode recordings in beating CMLC; format: cell-based, human
# Procedure: Transmembrane action potentials (TAP) were recorded by using a microelectrode filled with 3 M KCl (resistance 10 to 20 MΩ) connected via an Ag/AgCl junction to a high impedance amplifier (Intracellular Electrometer IE-210, Warner Instrument Corporation). Sharp microelectrodes were prepared using a glass, and a micromanipulator was used to lower the electrode into the bath and enter the cluster. The same impalement was kept for as long as possible. […] Steady-state recordings of action potentials at spontaneous frequency or during electric stimulation of 1-4 Hz were made. All calculations were made on the average of 10 (consecutive) action potentials. The bath was continuously perfused with Tyrode's solution consisting of (in mmol/L) 130 NaCl, 4 KCl, 0.5 MgSO4.7H20, 1.8 NaH2PO4xH2O, 18 NaHCO3, 5.5 glucose, 1.8 CaCl2 and kept at 37° C.
# Electrical stimulation of the CMLC was done using field stimulation by means of a mobile electrode.
# Change in APD was calculated and used to determine prolongation and assess triangularization.
# To investigate the role of the funny current (If) in spontaneously contracting CMLC, 10 μM zatebradine was administered.
# [4] = system: hBS cells (SA002); assay: Yield of beating CMLC from differentiating hBS cells, counted visually; format: cell-based, human; settings: for Yield of beating CMLC compared to control cultures not receiving additional factors: 5 μM pre-plating in addition to Activin A 10 ng/ml and bFGF 12 ng/ml, day 7 after plating
# Procedure: Spontaneously contracting cells were derived from undifferentiated hBS cells cultured on MEF cells (Heins et al 2004 Stem Cells). The cell lines used for this experiment could be the hBS cell line SA002, SA121, SA001, SA002.5, SA461 (Cellartis AB, Goteborg, Sweden, http://www.cellartis.com) and they can be propagated as described Heins et al. 2004. These cell lines are listed in the NIH stem cell registry and the UK Stem Cell bank. The hBS cells were detached from the feeder layer by incubation with collagenase IV (200 U/ml), for 10-15 minutes at 37° C. The cell suspension was transferred to a 15 ml tube, and after the cells had sedimented, the supernatant was removed. The colonies were resuspended in Knock Out DMEM supplemented with 20% FBS, 1% penicillin-streptomycin, 1% Glutamax, 0.5 mmol/l β-mercaptoethanol and 1% non-essential amino acids (all from Invitrogen, Carlsbad, Calif.) and dissociated mechanically into small aggregates of undifferentiated cells (0.2-0.4 mm) using a pipette. This cell suspension was distributed (200 μl/well) into a 96-well v-bottom plate (Corning Incorporated, NY, USA) at a concentration of approximately 4-6 colonies per well and centrifuged for 5 min at 400×g. The plate was then incubated at 37° C. for 3-8 days. The 3D structures that formed were then transferred to gelatine coated dishes containing culture medium (same as above). After a couple of days (normally 1-4) of culture, spontaneously contracting areas with cluster of contracting cells (CMLC) occurred and could be visually identified using a light microscope. Medium was changed every second to third day. New spontaneously beating areas continued to appear for up to 20 days post-plating. The clusters are isolated by mechanical dissection under visual inspection using a light microscope from the 3D-structures and subjected to further characterization. […] These were then manually isolated from the surrounding cells and plated onto laminin coated glass. After three days in culture, the clusters were fixed and stained for nuclei and the protein cardiac troponin 1, which is known to be specific for cardiac tissue. These clusters were then examined with confocal microscopy.
# CMLC were derived from undifferentiated hBS cells (cell line SA002, LOTAL002, passage 21, 22, 44 and 51) essentially as described in Example 1. […]
# The number of contracting CMLC was visually determined at day 6 or 7 after plating of formed 3D structures. […] The effect of the treatment on beating area characteristics was determined in terms of distribution in beating frequency, length, width, calculated area and structure in two experiments; one using plating medium with 20% FBS and one with plating medium containing 2% FBS. […]
# [5] = system: spontaneously beating CMLC; assay: Visually registered contraction rate of spontaneously beating CMLC; format: cell-based, human; settings: 5 μM
# Procedure: FIG. 28. The effect of Zatebradine on the beating frequency of contracting CMLC derived from hBS cells. […] The change in beating frequency was calculated by visually registering the contraction rate before and after Zatebradine administration. Values are expressed as beats per minute±SEM, n=32, ***=p<0.001. Statistical significance was calculated using paired t-test. […] The mRNA expression of HCN4 and Troponin T2 was measured using real-time RT quantitative PCR and related to the expression of the endogenous control CREBBP. Values are expressed as relative gene expression as compared to a reference sample set to 100% (n=32). Statistical analysis was performed using linear regression analysis.
# CMLC were derived from undifferentiated hBS cells essentially as described in Example 1 using cell line SA002. Zatebradine is a substance known to block so called funny channels, e.i. hyperpolarization-activated, cyclic nucleotide-gated (HCN) channels 1-4, which are involved in the regulation of cardiomyocyte contraction and cardiac rate. In order to investigate the effect of Zatebradine on CMLC derived from hBS cells and to correlate this effect to age and gene expression, Zatebradine was administered at a concentration of 5 μM to 32 spontaneously beating clusters of different ages. […] Gene expression was quantified using real-time RT quantitative PCR. […]
compound,measurement,setting,value
CNCC(O)c1ccc(O)c(O)c1 (centres unmarked) [Adrenaline],Effect on contractile activity / contraction frequency,[1],stimulatory effect is registered within minutes
COc1ccc(CCN2CCC(Nc3nc4ccccc4n3Cc3ccc(F)cc3)CC2)cc1 [Astemizol],Delayed repolarisation of the cardiac field potentials,"[2]; cumulative 0, 100 pM, 1 nM, 10 nM, 100 nM, 1000 nM",selective block and sustained prolongation of the repolarizing component at low nanomolar concentrations
same,Delayed repolarization of the cardiac field potential,"[2]; hES-CMC cluster on MEA, cumulative 0, 1 nM, 10 nM, 100 nM, 1 μM, 10 μM, FIG. 30",selective block and sustained prolongation of the repolarizing component at nanomolar concentrations
COc1cc(N)c(Cl)cc1C(=O)NC1CCN(CCCOc2ccc(F)cc2)CC1OC (centres unmarked) [Cisapride],Field action potential duration (indicator of QT prolongation),"[2]; increasing drug concentrations, FIGS. 5c and 5d",dose dependent prolongation of the action potential
Cc1cccc(CCN2CCC(C(=O)c3ccc(NS(C)(=O)=O)cc3)CC2)n1 [E-4031],Action potential prolongation,"[3]; 0.5-1 μM E-4031, all CMLC phenotypes",concentration dependent action potential prolongation in all CMLC phenotypes
same,Average change in percent of APD90,"[3]; atrial-like CMLC, 0.5 μM E-4031, spontaneous f",27.27 ± 7.61 (7) %
same,Average change in percent of APD90,"[3]; atrial-like CMLC, 1 μM E-4031, spontaneous f",70.08 ± 25.91 (2) %
same,Average change in percent of APD90,"[3]; nodal-like CMLC, 0.5 μM E-4031, spontaneous f",43.16 ± 21.00 (4) %
same,Average change in percent of APD90,"[3]; ventricle-like CMLC, 0.5 μM E-4031, 1 Hz",34.89 ± 9.83 (4) %
same,Average change in percent of APD90,"[3]; ventricle-like CMLC, 0.5 μM E-4031, 2 Hz",27.92 ± 9.23 (2) %
same,Average change in percent of APD90,"[3]; ventricle-like CMLC, 0.5 μM E-4031, spontaneous f",16.67 ± 10.64 (5) %
same,Average change in percent of APD90,"[3]; ventricle-like CMLC, 1 μM E-4031, 1 Hz",59.33 ± 31.28 (2) %
same,Average change in percent of APD90,"[3]; ventricle-like CMLC, 1 μM E-4031, 2 Hz",38.14 ± 36.85 (3) %
NC[C@H](O)c1ccc(O)c(O)c1 [Noradrenaline],Effect on contractile activity / contraction frequency,[1],stimulates contractile activity normally in a concentration-response manner
CNC[C@H](O)c1cccc(O)c1 [Phenylephrine],Effect on contractile activity / contraction frequency,[1],stimulated in a dose-dependent manner
Cn1cc(C2=C(c3ccc(Cl)cc3Cl)C(=O)NC2=O)c2ccccc21 [SB 216763],Yield of beating CMLC compared to control cultures not receiving additional factors,[4],~3 times
Fc1ccc(-c2nc3n(c2-c2ccncc2)CCS3)cc1 [SKF-86002],Yield of beating CMLC compared to control cultures not receiving additional factors,[4],~3 times
COc1ccc(CCN(C)CCCN2CCc3cc(OC)c(OC)cc3CC2=O)cc1OC [Zatebradine],Beating of some clusters,[5],completely blocked
same,"Decrease of the beating frequency of CMLC, on average",[5]; 32 spontaneously beating clusters of different ages,about 50%
same,Effect on action potential duration,"[3]; 10 μM Zatebradine, FIG. 21",increased duration
same,Effect on beating frequency,"[3]; 10 μM Zatebradine, FIG. 21",slowed beating frequency
CC(C)NCC(O)COc1ccc(CC(N)=O)cc1 (centres unmarked) [atenolol],Effect on contractile activity / contraction frequency,[1],stimulatory effect is reduced within minutes
CC(CCc1ccccc1)NCC(O)c1ccc(O)c(C(N)=O)c1 (centres unmarked) [labetolol],Effect on contractile activity / contraction frequency,[1],reduction in the stimulation of contraction frequency exerted by adrenaline
CC(COc1ccccc1)N(CCCl)Cc1ccccc1 (centres unmarked) [phenoxybenzamine],Effect on contractile activity / contraction frequency,[1],reduce the contraction frequency
LIF: protein growth factor supplemented at 1000 U/ml post-plating,Yield of beating CMLC,"[4]; Activin A and bFGF pre-plating, LIF 1000 U/ml for 4 days post-plating, counted day 7 and day 14",further increased the generation of beating CMLC
same,Improvement of yield compared to controls that only receive medium,"[4]; medium containing Activin A and/or bFGF supplemented with LIF post-plating, FIG. 14",~2 fold
